Reference: ChEMBL document CHEMBL1201862, “PubChem BioAssay data set” (2004)
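Growth conditions: 96-well plates. Treatment: test compound, 48 hours, 5 concentrations. Analysis: linear interpolation between bracketing concentrations; unreached endpoints set to highest concentration. Here, GI50 denotes the concentration required for 50% inhibition of growth.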 The source made the active and inactive calls. No stated cut-off is given here; in the data, active = GI50 up to about 1.1 µM and inactive = higher.

What was measured:
Experiment in all cases: NCI anticancer screen, dose series, 48 h
[1] = system: 786-0
[2] = system: A498
[3] = system: A549
[4] = system: ACHN
[5] = system: BT-549
[6] = system: CAKI-1
[7] = system: CCRF-CEM
[8] = system: COLO 205
[9] = system: DU-145
[10] = system: EKVX
[11] = system: HCC 2998
[12] = system: HCT-116
[13] = system: HCT-15
[14] = system: HL-60
[15] = system: HOP-62
[16] = system: HOP-92
[17] = system: HT-29
[18] = system: Hs-578T
[19] = system: IGROV-1
[20] = system: K562
[21] = system: KM12
[22] = system: LOX IMVI
[23] = system: M14
[24] = system: MCF7
[25] = system: MDA-MB-231
[26] = system: MDA-MB-435
[27] = system: MDA-N
[28] = system: MOLT-4
[29] = system: Malme-3M
[30] = system: NCI-H226
[31] = system: NCI-H23
[32] = system: NCI-H460
[33] = system: NCI-H522
[34] = system: NCI/ADR-RES
[35] = system: OVCAR-3
[36] = system: OVCAR-4
[37] = system: OVCAR-5
[38] = system: OVCAR-8
[39] = system: PC-3
[40] = system: RPMI-8226
[41] = system: RXF 393
[42] = system: SF-268
[43] = system: SF-295
[44] = system: SF-539
[45] = system: SK-MEL-28
[46] = system: SK-MEL-2
[47] = system: SK-MEL-5
[48] = system: SK-OV-3
[49] = system: SN12C
[50] = system: SNB-19
[51] = system: SNB-75
[52] = system: SW-620
[53] = system: T47D
[54] = system: TK-10
[55] = system: U-251
[56] = system: UACC-257
[57] = system: UACC-62
[58] = system: UO-31

With `O=S(=O)(N1CCCCN(S(=O)(=O)C(F)(F)F)CCCN(S(=O)(=O)C(F)(F)F)CCCCN(S(=O)(=O)C(F)(F)F)CCCN(S(=O)(=O)C(F)(F)F)CCCCN(S(=O)(=O)C(F)(F)F)CCCN(S(=O)(=O)C(F)(F)F)CCCCN(S(=O)(=O)C(F)(F)F)CCC1)C(F)(F)F` the GI50 [1] was > 100 µM (inactive), the GI50 [2] was > 31.6 µM (inactive) and the GI50 [3] was > 31.6 µM (inactive). For the same compound, the GI50 [4] was > 31.6 µM (inactive), the GI50 [5] was > 31.6 µM (inactive) and the GI50 [6] was > 31.6 µM (inactive). For the same compound, the GI50 [7] was > 31.6 µM (inactive), the GI50 [8] was > 100 µM (inactive) and the GI50 [9] was > 31.6 µM (inactive). For the same compound, the GI50 [10] was > 31.6 µM (inactive), the GI50 [11] was > 31.6 µM (inactive) and the GI50 [12] was > 31.6 µM (inactive). The GI50 [13] was > 31.6 µM, the GI50 [14] was > 31.6 µM (inactive) and the GI50 [15] was > 31.6 µM (inactive). The GI50 [16] was 11.1 µM (inactive), the GI50 [17] was > 31.6 µM (inactive) and the GI50 [18] was > 31.6 µM (inactive). The GI50 [19] was > 31.6 µM (inactive), the GI50 [20] was > 31.6 µM (inactive) and the GI50 [21] was > 31.6 µM (inactive). For the same compound, the GI50 [22] was > 31.6 µM (inactive), the GI50 [23] was > 31.6 µM (inactive) and the GI50 [24] was > 10 µM (inactive). For the same compound, the GI50 [25] was > 31.6 µM (inactive), the GI50 [26] was > 31.6 µM (inactive) and the GI50 [27] was > 31.6 µM (inactive). For the same compound, the GI50 [28] was > 31.6 µM (inactive), the GI50 [29] was > 31.6 µM (inactive) and the GI50 [30] was > 31.6 µM (inactive). The GI50 [31] was > 31.6 µM (inactive), the GI50 [32] was > 31.6 µM (inactive) and the GI50 [33] was > 31.6 µM (inactive). The GI50 [34] was > 31.6 µM (inactive), the GI50 [35] was > 31.6 µM (inactive) and the GI50 [36] was > 100 µM (inactive). The GI50 [37] was > 100 µM (inactive), the GI50 [38] was > 31.6 µM (inactive) and the GI50 [39] was > 31.6 µM (inactive). The GI50 [40] was 78.7 µM (inactive), the GI50 [41] was > 31.6 µM (inactive) and the GI50 [42] was > 31.6 µM (inactive). The GI50 [43] was > 31.6 µM (inactive), the GI50 [44] was > 31.6 µM (inactive) and the GI50 [45] was > 31.6 µM (inactive). The GI50 [46] was > 100 µM (inactive), the GI50 [47] was > 31.6 µM (inactive) and the GI50 [48] was > 31.6 µM (inactive). For the same compound, the GI50 [49] was > 31.6 µM (inactive), the GI50 [50] was > 31.6 µM (inactive) and the GI50 [51] was > 31.6 µM (inactive). For the same compound, the GI50 [52] was > 31.6 µM (inactive), the GI50 [53] was > 31.6 µM (inactive) and the GI50 [54] was > 31.6 µM (inactive). For the same compound, the GI50 [55] was > 100 µM (inactive), the GI50 [56] was > 31.6 µM (inactive) and the GI50 [57] was > 31.6 µM (inactive). The GI50 [58] was > 31.6 µM (inactive).

With `COc1cc2oc(-c3ccc4c(c3)OCO4)c(OC)c(=O)c2c(O)c1OC` the GI50 [1] was > 50 µM (inactive), the GI50 [2] was > 50 µM (inactive) and the GI50 [3] was > 50 µM (inactive). For the same compound, the GI50 [4] was > 50 µM (inactive), the GI50 [5] was 34.9 µM (inactive) and the GI50 [6] was > 50 µM (inactive). The GI50 [7] was > 50 µM (inactive), the GI50 [8] was > 50 µM (inactive) and the GI50 [9] was > 50 µM (inactive). The GI50 [10] was > 50 µM (inactive), the GI50 [11] was > 50 µM (inactive) and the GI50 [12] was > 50 µM (inactive). The GI50 [13] was > 50 µM, the GI50 [14] was > 50 µM (inactive) and the GI50 [15] was 15.7 µM (inactive). The GI50 [16] was 22.8 µM (inactive), the GI50 [17] was > 50 µM (inactive) and the GI50 [18] was > 50 µM (inactive). For the same compound, the GI50 [19] was > 50 µM (inactive), the GI50 [20] was 27.9 µM (inactive) and the GI50 [21] was > 50 µM (inactive). For the same compound, the GI50 [22] was > 50 µM (inactive), the GI50 [23] was > 50 µM (inactive) and the GI50 [24] was > 50 µM (inactive). The GI50 [25] was 45.4 µM (inactive), the GI50 [26] was 26.9 µM (inactive) and the GI50 [27] was > 50 µM (inactive). For the same compound, the GI50 [28] was > 50 µM (inactive), the GI50 [29] was > 50 µM (inactive) and the GI50 [30] was > 50 µM (inactive). The GI50 [31] was 35.6 µM (inactive), the GI50 [32] was > 50 µM (inactive) and the GI50 [33] was > 50 µM (inactive). The GI50 [34] was > 50 µM (inactive), the GI50 [35] was > 50 µM (inactive) and the GI50 [36] was > 50 µM (inactive). The GI50 [37] was > 50 µM (inactive), the GI50 [38] was > 50 µM (inactive) and the GI50 [39] was > 50 µM (inactive). For the same compound, the GI50 [41] was > 50 µM (inactive), the GI50 [42] was 29.4 µM (inactive) and the GI50 [43] was 43.8 µM (inactive). For the same compound, the GI50 [44] was > 50 µM (inactive), the GI50 [45] was > 50 µM (inactive) and the GI50 [46] was > 50 µM (inactive). The GI50 [47] was > 50 µM (inactive), the GI50 [48] was > 50 µM (inactive) and the GI50 [49] was > 50 µM (inactive). The GI50 [50] was > 50 µM (inactive), the GI50 [51] was 28.6 µM (inactive) and the GI50 [52] was > 50 µM (inactive). For the same compound, the GI50 [53] was > 50 µM (inactive), the GI50 [54] was > 50 µM (inactive) and the GI50 [55] was 18.9 µM (inactive). For the same compound, the GI50 [56] was > 50 µM (inactive), the GI50 [57] was > 50 µM (inactive) and the GI50 [58] was > 50 µM (inactive).
